Data on four compounds can be found in patent US20240382600A1, “BIFUNCTIONAL DEGRADERS COMPRISING A TEAD BINDER” (Novartis AG, priority 2021, published 2024).

For test [1], the target named is Avi-humanTEAD4^217-434 / Cy5 labeled humanYAP^60-100 (Homo sapiens (Human), UniProt Q15561). The test can be described thus: In-vitro biochemical TR-FRET assay (TEAD4/YAP). The test is classed as binding. The following applies: 1 h at room temperature.
Test [2] relates to YAP-dependent transcription in NCI-H2052 Tet-On shYAP_2371 pLenti6 MCAT_Luc cells. The test can be described thus: YAP reporter gene activity assay (MCAT-Luc), NCI-H2052. The test is classed as cell-based. The following applies: Homo sapiens, 24 hrs.
The subject of test [3] is YAP-dependent transcription in SF268-MCAT_Luc_dox-i-shYAPLevy (Clone 13) cells. The test can be described thus: YAP reporter gene activity assay (MCAT-Luc), SF268. The test is classed as cell-based. As to conditions: Homo sapiens, SF-268; SF268 MCAT_Luc, 24 hrs.
Test [4] deals with MKN-45/Ubc-luc cells (unspecific inhibition of luciferase expression or activity). The test can be described thus: Reporter gene assay specificity control (Ubc-Luc), MKN-45. The test is classed as cell-based. As to conditions: Homo sapiens; MKN-45/Ubc-luc specificity control, 24 hrs. An outline of the steps:
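MKN-45 cells stably carrying a ubiquitin C promoter–firefly luciferase construct, treated the day after seeding with eleven 2-fold compound dilutions (0.1% DMSO final) for 24 hrs at 37° C. Luminescence read 5 min after Steady Glo addition; cell-free background subtracted, as a control for nonspecific luciferase inhibition.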

Test [5] concerns NCI-H2052 Tet-On shYAP_2371 pLenti6 MCAT_Luc cells. The test can be described thus: Proliferation assay (resazurin/AlamarBlue), NCI-H2052. The test is classed as cell-based. The following applies: Homo sapiens; NCI-H2052, 72 hours.
The test system of test [6] is SF268-MCAT_Luc_dox-i-shYAPLevy (Clone 13) cells. The test can be described thus: Proliferation assay (resazurin/AlamarBlue), SF268. The test is classed as cell-based. As to conditions: Homo sapiens, SF-268; SF268, 72 hours.
Another test relates to MKN-45/Ubc-luc cells. The test can be described thus: Proliferation assay (resazurin/AlamarBlue), MKN-45. The test is classed as cell-based. As to conditions: Homo sapiens; MKN-45, 72 hours. An outline of the steps: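 MKN-45 cells carrying constitutive Ubc-driven luciferase reporter, treated the day after seeding with eleven 2-fold dilutions (0.1% DMSO) for 72 h at 37 °C. Viability by resazurin, referenced to day-0 plate; GI50 from % growth (100 none, 0 stasis, −100 kill) and residual viability at top concentration.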

In test [7] the target is TEAD1-GFP in HEK293A cells (Homo sapiens (Human), UniProt P28347). The test can be described thus: TEAD1 protein abundance flow cytometry assay in HEK293A. The test is classed as cell-based. As to conditions: HEK293A TEAD1-GFP-CHYSEL-mCherry sensor cells, 24 h, GFP signal by flow cytometry. In short, it runs like this:
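HEK293A stably expressing bicistronic TEAD1-GFP-CHYSEL-mCherry treated 24 h at 37° C with 10-point 3-fold series from 10 μM (0.1% DMSO), duplicate. Median GFP of 2,500 single cells by flow cytometry, normalized to parental HEK293A (0%) and DMSO (100%); DC50 from concentration-response curves.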

Sequence of TEAD1-GFP in HEK293A cells (P28347 whole entry): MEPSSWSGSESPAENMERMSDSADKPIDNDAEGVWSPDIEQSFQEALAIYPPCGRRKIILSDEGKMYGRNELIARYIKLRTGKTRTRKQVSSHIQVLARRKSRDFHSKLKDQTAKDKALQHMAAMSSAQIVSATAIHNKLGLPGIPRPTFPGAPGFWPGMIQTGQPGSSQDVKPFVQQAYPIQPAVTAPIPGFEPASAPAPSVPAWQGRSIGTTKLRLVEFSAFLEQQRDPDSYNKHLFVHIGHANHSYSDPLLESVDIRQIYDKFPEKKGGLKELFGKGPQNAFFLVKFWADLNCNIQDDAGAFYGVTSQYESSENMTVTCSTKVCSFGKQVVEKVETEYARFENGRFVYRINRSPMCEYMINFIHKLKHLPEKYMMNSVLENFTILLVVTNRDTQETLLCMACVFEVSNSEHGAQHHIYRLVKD
Sequence of Avi-humanTEAD4^217-434 / Cy5 labeled humanYAP^60-100 (Q15561 217-434): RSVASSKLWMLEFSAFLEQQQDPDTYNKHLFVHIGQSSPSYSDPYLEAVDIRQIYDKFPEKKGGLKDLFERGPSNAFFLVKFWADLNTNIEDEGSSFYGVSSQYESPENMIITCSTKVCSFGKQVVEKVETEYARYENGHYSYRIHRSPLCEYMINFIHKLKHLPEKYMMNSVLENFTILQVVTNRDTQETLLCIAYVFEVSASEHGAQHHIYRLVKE

For the compound `COc1ccc(C(N)=O)c(-c2c(Cl)c(F)cc3c2[C@H](C)[C@@](CN[C@H]2CC[C@H](C(=O)N4CCC(CN5CCN(C(=O)COc6ccc(C)c(N7CCC(=O)NC7=O)c6)CC5)CC4)CC2)(c2ccccc2)O3)c1F` (atropisomer, axis not shown) [Example 12, 2-((2S,3S,4S)-5-chloro-2-((((1r,4S)-4-(4-((4-(2-(3-(2,4-dioxotetrahydropyrimidin-1(2H)-yl)-4-methylphenoxy)acetyl)piperazin-1-yl)methyl)piperidine-1-carbonyl)cyclohexyl)amino)methyl)-6-fluoro-3-methyl-2-phenyl-2,3-dihydrobenzofuran-4-yl)-3-fluoro-4-methoxybenzamide], the IC50 in test [1] is 1.6 nM; in test [2], 4 nM; in test [3], 0.38 nM; in test [4], more than 2000 nM. For the same compound, the GI50 is 15 nM in test [5], 20 nM in test [6] and more than 2000 nM in the test on MKN-45/Ubc-luc cells. In test [7], this compound registered a DC50 of 1 nM.

In the case of `COc1ccc(C(N)=O)c(-c2c(Cl)c(F)cc3c2[C@H](C)[C@@](CN[C@H]2CC[C@H](C(=O)N4CCC(CC5CCN(C(=O)c6ccc(Cl)c(N7CCC(=O)NC7=O)c6)CC5)CC4)CC2)(c2ccccc2)O3)c1F` (atropisomer, axis not shown) [Example 24, 2-((2S,3S,4S)-5-chloro-2-((((1r,4S)-4-(4-((1-(4-chloro-3-(2,4-dioxotetrahydropyrimidin-1(2H)-yl)benzoyl)piperidin-4-yl)methyl)piperidine-1-carbonyl)cyclohexyl)amino)methyl)-6-fluoro-3-methyl-2-phenyl-2,3-dihydrobenzofuran-4-yl)-3-fluoro-4-methoxybenzamide], the IC50 was 3.4 nM in test [1], 1 nM in test [2], 0.2 nM in test [3] and more than 2000 nM in test [4]. Besides, the GI50 is 3.5 nM in test [5], 6.2 nM in test [6] and more than 2000 nM with MKN-45/Ubc-luc cells. Moreover, the DC50 in test [7] was less than 0.3 nM.

As for `COc1ccc(C(N)=O)c(-c2c(Cl)c(F)cc3c2[C@H](C)[C@@](CN[C@H]2CC[C@H](C(=O)N4CCC(CC5CCN(C(=O)COc6ccc(C)c(N7CCC(=O)NC7=O)c6)CC5)CC4)CC2)(c2ccccc2)O3)c1F` (atropisomer, axis not shown) [Example 21, 2-((2S,3S,4S)-5-chloro-2-((((1r,4S)-4-(4-((1-(2-(3-(2,4-dioxotetrahydropyrimidin-1(2H)-yl)-4-methylphenoxy)acetyl)piperidin-4-yl)methyl)piperidine-1-carbonyl)cyclohexyl)amino)methyl)-6-fluoro-3-methyl-2-phenyl-2,3-dihydrobenzofuran-4-yl)-3-fluoro-4-methoxybenzamide], the IC50 in test [1] was 1.6 nM; in test [2], 1.4 nM; in test [3], 0.3 nM; in test [4] it was more than 2000 nM. The figures for the GI50 (in test [5]; in test [6]; in the test with MKN-45/Ubc-luc cells) were 4.3 nM, 9.4 nM and more than 2000 nM, respectively. In addition, the DC50 in test [7] came out at 0.3 nM.

With `COc1ccc(C(N)=O)c(-c2c(Cl)c(F)cc3c2[C@H](C)[C@@](CN[C@H]2CC[C@H](C(=O)N4CCC(OC5CCN(C(=O)c6ccc(Cl)c(N7CCC(=O)NC7=O)c6)CC5)CC4)CC2)(c2ccccc2)O3)c1F` (atropisomer, axis not shown) [Example 13, 2-((2S,3S,4S)-5-chloro-2-((((1r,4S)-4-(4-((1-(4-chloro-3-(2,4-dioxotetrahydropyrimidin-1(2H)-yl)benzoyl)piperidin-4-yl)oxy)piperidine-1-carbonyl)cyclohexyl)amino)methyl)-6-fluoro-3-methyl-2-phenyl-2,3-dihydrobenzofuran-4-yl)-3-fluoro-4-methoxybenzamide], the IC50 in test [1] is 1.8 nM; in test [2], 4.5 nM; in test [3], 0.49 nM; in test [4], more than 2000 nM. In addition, the GI50 in test [5] was 13 nM; in test [6] it was 23 nM; in the test with MKN-45/Ubc-luc cells, more than 2000 nM. In test [7], this compound returned a DC50 of 0.5 nM.
